Data taken from patent publication US12247246B2, “Identification of inhibitors of TcpC and TIR NADase activity” (Washington University, priority 2017, dated 2025).

Assays:
SARM1-TIR = biological target: T1, SARM1-TIR (Homo sapiens, UniProt Q6SZW1, DEL570-570/DEL657-657); test: Substrate specificity in NADase assay, purified SARM1-TIR; assay type: biochemical; conditions: purified TIR protein, HPLC and LC-MS, 30 minutes
T1 construct: made in house
T1 sequence (Q6SZW1 with tags, fused parts or gaps DEL570-570/DEL657-657): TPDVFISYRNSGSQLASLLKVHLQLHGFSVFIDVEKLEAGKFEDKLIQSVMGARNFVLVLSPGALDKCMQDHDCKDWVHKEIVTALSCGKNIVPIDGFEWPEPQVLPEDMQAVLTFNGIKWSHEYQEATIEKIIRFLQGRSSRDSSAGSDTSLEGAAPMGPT

[1] = system: prokaryotic TIR domains (TirS-TIR, TcpC-TIR, TcpA-TIR); test: Substrate specificity in NADase assay, purified prokaryotic TIR domains; assay type: biochemical; conditions: purified TIR proteins, HPLC and LC-MS, 30 minutes
Experimental: Supernatant (90 μL) containing the extracted metabolites was mixed with 0.5M Potassium Phosphate buffer (10 μL), and metabolites were analyzed by HPLC (Nexera X2) with Kinetex (100×3 mm, 2.6 μm; Phenomenex) column. Internal standards for NAD^+, Nicotinamide (Nam), ADP Ribose (ADPR), and cyclic ADPR were used to generate standard curves for quantification of the respective compounds. The levels for each compound in each experimental sample were normalized to the 0 min time point that was analyzed concurrently.
Neutralization was performed with 3M K2CO3.
Samples were prepared by mixing the reactions with 50% methanol in distilled water. The samples were placed on ice, centrifuged, soluble metabolites in the supernatant were extracted with chloroform, and the aqueous phase was lyophilized and stored at −20° C. until LC-MS analysis. For LC-MS, the metabolite samples were reconstituted with 5 mM ammonium formate, centrifuged 12,000×g for 10 min, and the cleared supernatant was applied to the LC-MS for metabolite identification and quantification. Liquid chromatography was performed by HPLC system (1290; Agilent) with Atlantis T3 (2.1×150 mm, 3 μm; Waters) column. Samples (10 µl) were injected at a flow rate of 0.15 ml/min with 5 mM ammonium formate for mobile phase A and 100% methanol for mobile phase B and metabolites were eluted with gradients of 2-6 min, 0-20% B; 6-8 min, 20-50% B; 8-10 min 50% B; 10-15 min, 50-0% B. The metabolites were detected with Triple Quad mass spectrometer (6460; Agilent) under positive ESI multiple reaction monitoring (MRM). Metabolites were quantified by MassHunter quantitative analysis tool (Agilent) with standard curves. Standard curves for each compound were generated by analyzing NAD^+, cADPR, ADPR, and Nam reconstituted in 5 mM ammonium formate.
In some instances, NADases are capable of cleaving a number of related molecules, such as the NAD+ precursor Nicotinamide Mononucleotide (NMN) in the case of CD38 (Sauve et al., 1998). Further, we wanted to determine whether prokaryotic TIRs could cleave additional substrates, providing additional paths to modifying cell metabolism. To examine the substrate specificity of the prokaryotic TIR domains, we tested their activity using a wide variety of metabolites and analogs.

SARM1 (Sam-Tir) = biological target: T2, SARM1 (Sam-Tir) (Homo sapiens, UniProt Q6SZW1); test: SARM1 Sam-Tir lysate NADase inhibition assay; assay type: biochemical; conditions: data not shown
T2 construct: SARM1 Sam-Tir lysate and MSSA Tir were also used; made in house; host or cells: lysate
T2 sequence (Q6SZW1 410-724 limits assumed): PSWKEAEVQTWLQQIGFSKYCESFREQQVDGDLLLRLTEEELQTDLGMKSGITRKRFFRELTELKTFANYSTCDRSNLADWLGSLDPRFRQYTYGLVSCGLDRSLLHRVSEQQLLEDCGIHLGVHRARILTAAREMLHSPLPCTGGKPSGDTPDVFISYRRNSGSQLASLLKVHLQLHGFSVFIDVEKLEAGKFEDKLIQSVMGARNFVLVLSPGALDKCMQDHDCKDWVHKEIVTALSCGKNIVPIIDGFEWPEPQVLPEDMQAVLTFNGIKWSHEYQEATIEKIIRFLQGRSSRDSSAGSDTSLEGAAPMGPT
Experimental: NAD (10 μM final concentration) was then added for a final reaction volume of 20 μl. The reaction was incubated at 37° C. for 60 min, and then stopped by addition of 180 μl of 0.55 M perchloric acid (HClO4) and placed on ice. After 10 min on ice, the reaction plates were centrifuged for 10 min at 4,000 rpm (Sorvall ST 16R centrifuge). The supernatant (120 μl) was transferred to a new plate and 10 μl of 3M K2CO3 was added to neutralize the solution. Precipitated salts were removed by centrifugation 10 min at 4,000 rpm (Sorvall ST 16R centrifuge). The supernatant was transferred and analyzed by HPLC (Shimadzu Nexera X2) to quantify the amounts of NAD and ADPR, a product of the cleavage reaction, in each sample. From these values, the NAD/ADPR ratio was calculated for each compound as a measure of NAD cleavage activity. This ratio was compared to the ratio generated in the absence of compound inhibitors.
(§1) Positive hits were individually purchased from Sigma and tested its dose dependent inhibition in conditions described above. SARM1 Sam-Tir lysate and MSSA Tir were also used to test if these compounds could block these Tir NADase activities as well.

TirS = TirS (Staphylococcus aureus, UniProt P0DTS9); test: TirS NADase inhibition assay (in-vitro translated protein, NAD/ADPR by HPLC); assay type: biochemical; conditions: FIG. 11B
TirS, sequence (P0DTS9 141-275 limits assumed): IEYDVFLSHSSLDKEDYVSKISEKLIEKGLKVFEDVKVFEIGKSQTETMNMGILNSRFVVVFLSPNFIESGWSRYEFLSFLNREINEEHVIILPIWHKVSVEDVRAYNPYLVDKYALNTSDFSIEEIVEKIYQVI
Experimental: (§2) The reaction was incubated at 37° C. for 60 min, and then stopped by addition of 180 μl of 0.55 M perchloric acid (HClO4) and placed on ice. After 10 min on ice, the reaction plates were centrifuged for 10 min at 4,000 rpm (Sorvall ST 16R centrifuge). The supernatant (120 μl) was transferred to a new plate and 10 μl of 3M K2CO3 was added to neutralize the solution. Precipitated salts were removed by centrifugation 10 min at 4,000 rpm (Sorvall ST 16R centrifuge). […] This ratio was compared to the ratio generated in the absence of compound inhibitors.

TcpC TIR = TcpC TIR (Escherichia coli O6:H1, UniProt A0A0H2V8B5); test: biochemical; assay type: biochemical, uropathogenic Escherichia coli; conditions: for inhibitor of TcpC TIR NADase activity (screen hit, NAD/ADPR ratio >2): Pharmakon library screen, 25 μM compound, 10 μM NAD, 37° C. 60 min, hits retested for dose dependent inhibition
TcpC TIR, sequence (A0A0H2V8B5 169-303 limits assumed): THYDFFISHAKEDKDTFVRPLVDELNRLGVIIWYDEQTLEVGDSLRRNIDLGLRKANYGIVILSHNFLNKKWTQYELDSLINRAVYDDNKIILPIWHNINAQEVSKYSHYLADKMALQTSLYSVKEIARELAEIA
Experimental: (§3) NRK1-HEK293T cells were seeded onto 150 cm2 plates at 20×10^6 cells per plate. […] Forty-eight hours after transfection, cells were harvested, pelleted by centrifugation at 1,000 rpm (Sorvall ST 16R centrifuge, Thermo Fisher), and washed once with cold PBS (0.01 M phosphate buffered saline NaCl 0.138 M; KCl 0.0027 M; pH 7.4). The cells were resuspended in PBS with protease inhibitors (Complete protease inhibitor cocktail, Roche product #11873580001) and cell lysates were prepared by sonication (Branson Sonifer 450, output=3, 20 episodes of stroke). […] Protein concentration was determined by the Bicinchoninic (BCA) method and used to normalize lysate concentrations.
as §2, §1

[2] = biological target: T3, uropathogenic Escherichia coli TcpC TIR domain (TcpC-TIR) (Escherichia coli, UniProt A0A0H2V8B5); assay type: biochemical; conditions: primary screen 25 μM, 10 μM NAD, 37° C, 60 min (hit: NAD/ADPR ratio >2), then dose response; FIG. 10
T3 construct: cell lysate
T3 sequence (A0A0H2V8B5 170-307): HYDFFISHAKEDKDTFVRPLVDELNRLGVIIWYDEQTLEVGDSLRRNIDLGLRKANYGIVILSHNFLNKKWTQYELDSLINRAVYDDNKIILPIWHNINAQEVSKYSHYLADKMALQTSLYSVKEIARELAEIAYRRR
Experimental: as §3, §2
Positive hits were individually purchased from Sigma and tested its dose dependent inhibition in conditions described above. […]

[3] = system: SPN (Streptococcus Pyogenes NAD^+ glycohydrolase); conditions: reported value (Ghosh et al., 2010); cited from earlier work

Compound | cleavage of substrate by SARM1-TIR (SARM1-TIR) | cleavage of substrate by prokaryotic TIR domains [1] | other results
CC(=O)c1ccc[n+]([C@@H]2O[C@H](COP(=O)([O-])OP(=O)(O)OC[C@H]3O[C@@H](n4cnc5c(N)ncnc54)[C@H](O)[C@@H]3O)[C@@H](O)[C@H]2O)c1 [3-apAD, 3-acetylpyridine adenine dinucleotide] | substantially cleaved | substantially cleaved | 
Nc1c2ccccc2nc2ccccc12 [9-aminoacridine] |  |  | inhibition of SARM1 (Sam-Tir) NADase activity (SARM1 (Sam-Tir)): Neither of these drugs inhibited; inhibition of TirS NADase activity, compared among acridine compounds (TirS): most potent inhibition; inhibition of TcpC TIR NADase activity (TcpC TIR; data not shown): Neither of these drugs inhibited
Nc1ncnc2c1ncn2[C@@H]1O[C@H](COP(=O)(O)OP(=O)(O)OP(=O)(O)O)[C@@H](O)[C@H]1O [ATP, Adenosine triphosphate] | unable to detect substantial cleavage | unable to detect substantial cleavage | 
Cc1cc(N)c2ccccc2[n+]1CCCCCCCCCC[n+]1c(C)cc(N)c2ccccc21 [Dequalinium] |  |  | inhibition of TcpC TIR NADase activity [2]: very potent inhibitor; IC50 (TcpC TIR): ~0.3 µM; inhibitor of TcpC TIR NADase activity (screen hit, NAD/ADPR ratio >2) (TcpC TIR): potent inhibitor; inhibitor of TcpC TIR NADase activity (screen hit, NAD/ADPR ratio >2) (TcpC TIR; listed as dequalinium): inhibitors
NC(=O)c1ccc[n+]([C@@H]2O[C@H](COP(=O)([O-])OP(=O)(O)OC[C@H]3O[C@@H](n4cnc5c(N)ncnc54)[C@H](O)[C@@H]3O)[C@@H](O)[C@H]2O)c1 [NAD+] |  |  | Km [3]: 188 µM
NC(=O)c1ccc[n+]([C@@H]2O[C@H](COP(=O)([O-])OP(=O)(O)OC[C@H]3O[C@@H](n4cnc5c(=O)[nH]c(N)nc54)[C@H](O)[C@@H]3O)[C@@H](O)[C@H]2O)c1 [NGD, Nicotinamide Guanine Dinucleotide] | cleaved | did not cleave | 
NC(=O)c1ccc[n+](C2OC(COP(=O)(O)OP(=O)(O)OCC3OC(n4cnc5c(=O)[nH]cnc54)C(O)C3O)C(O)C2O)c1 (stereo not shown) [NHD, Nicotinamide Hypoxanthine Dinucleotide] | cleaved | did not cleave | 
NC(=O)c1ccc[n+]([C@@H]2O[C@H](COP(=O)([O-])O)[C@@H](O)[C@H]2O)c1 [NMN, Nicotinamide Mononucleotide] |  | little effect | 
Nc1ncnc2c1ncn2[C@@H]1O[C@H](COP(=O)(O)OP(=O)(O)OC[C@H]2O[C@@H]([n+]3cccc(C(=O)O)c3)[C@H](O)[C@@H]2O)[C@@H](O)[C@H]1O [NaAD, Nicotinic Acid Adenine Dinucleotide] | none cleaved | none cleaved | 
NC(N)=NC(=O)c1nc(Cl)c(N)nc1N [amiloride, 3,5-diamino-6-chloro-N-(diaminomethylidene)pyrazine-2-carboxamide] |  |  | inhibitor of TcpC TIR NADase activity (screen hit, NAD/ADPR ratio >2) (TcpC TIR): inhibitors
NC(=S)c1ccc[n+]([C@@H]2O[C@H](COP(=O)([O-])OP(=O)(O)OC[C@H]3O[C@@H](n4cnc5c(N)ncnc54)[C@H](O)[C@@H]3O)[C@@H](O)[C@H]2O)c1 [sNAD, thionicotinamide adenine dinucleotide] | substantially cleaved | substantially cleaved | 
Guanine triphosphate [GTP] | unable to detect substantial cleavage | unable to detect substantial cleavage | 
Nicotinamide Adenine Dinucleotide Phosphate [NADP^+] |  | cleave | 
